Drawing on PubChem BioAssay (NCI), this text covers TGI for 15 molecules.

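Where inhibition never reached the appropriate level, the endpoint shown equals the highest concentration tested. Otherwise, values were interpolated linearly from a five-concentration, 48-hour dose response in 96-well plates. TGI denotes the concentration required for complete inhibition of growth.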

Test systems include HOP-92 NSCLC; SNB-75 CNS; DU-145 prostate; HOP-62 NSCLC; KM12 colon; HCT-15 colon; NCI-H522 lung; CAKI-1 renal; HCT-116 colon; A498 renal.
What all share (test): inhibition of tumour cell growth, NCI panel, 48 h

With `COc1ccc(-c2cc(-c3ccc(C)cc3)n(C3OC(COC(C)=O)C(OC(C)=O)C(OC(C)=O)C3OC(C)=O)c(=S)c2C#N)cc1` (centres undefined), the TGI is > 100 µM in the experiment with HOP-92 NSCLC; 92 µM with SNB-75 CNS; > 100 µM with DU-145 prostate; > 100 µM in the experiment with HOP-62 NSCLC; > 100 µM with KM12 colon; > 100 µM in the experiment with HCT-15 colon. The TGI in the experiment on NCI-H522 lung, in the experiment on CAKI-1 renal and with HCT-116 colon was > 100 µM each time.
On to `CC1[C@@]2(O[C@@H]3C=C4C5CCC6Cc7nc8c(nc7C[C@@]6(C)C5C[C@H](O)[C@@]4(C)[C@]13O)CC1CCc3c(cc4c5c3C(O)C[C@H]5[C@@H](C)C3(O4)OC(C)(C)CC3O)[C@]1(C)C8)O[C@@](C)(CO)C[C@@H]2O` (some centres undefined), for which the TGI with SNB-75 CNS was 0.372 µM; with A498 renal it was 0.59 µM; with HOP-62 NSCLC it was 0.263 µM; in the experiment with KM12 colon, > 3.72 µM; in the experiment on HCT-15 colon, > 3.72 µM; in the experiment on NCI-H522 lung it was 2.39 µM. The TGI in the experiment on CAKI-1 renal and in the experiment on HCT-116 colon was > 3.72 µM each time.
Take `Cc1cccc2c(=O)c3cccc([C@H](C)C(=O)O)c3oc12`: the TGI in the experiment with HOP-92 NSCLC, with A498 renal, in the experiment with DU-145 prostate, in the experiment with HOP-62 NSCLC, with KM12 colon and in the experiment with HCT-15 colon was > 100 µM in each case. For the same molecule, the TGI with NCI-H522 lung, in the experiment on CAKI-1 renal and with HCT-116 colon was > 100 µM each time.
Turning to `COc1ccc(C2CC(c3sc(Nc4ccc(C)cc4)nc3C)=NN2)cc1` (centres undefined), the TGI with HOP-92 NSCLC was 30.3 µM; in the experiment with SNB-75 CNS, 34.1 µM; in the experiment on A498 renal, 30.7 µM; in the experiment with HOP-62 NSCLC it was 38.3 µM; in the experiment on KM12 colon, 29.5 µM; in the experiment on HCT-15 colon, 39.1 µM. Besides, the TGI in the experiment with NCI-H522 lung is 31.8 µM; in the experiment with CAKI-1 renal, 41.2 µM; in the experiment with HCT-116 colon, 15.1 µM.
In the case of `O=c1cc(NNc2ccccc2)[nH]c(=O)[nH]1`, the TGI in the experiment on A498 renal was > 100 µM; with DU-145 prostate it was > 100 µM; in the experiment on HOP-62 NSCLC, > 100 µM; with KM12 colon, 32.8 µM; in the experiment on HCT-15 colon, 30 µM; in the experiment with NCI-H522 lung, 46.2 µM. For the same molecule, in the experiment on HCT-116 colon, the TGI was 32.6 µM.
Regarding `CN(C)CCNC(=O)c1cccc2c1C(=O)c1ccccc1C2=O`, the TGI in the experiment with HOP-92 NSCLC was > 73.7 µM; with SNB-75 CNS, > 100 µM; in the experiment with A498 renal, > 100 µM; in the experiment with HOP-62 NSCLC it was > 31.6 µM; in the experiment with KM12 colon, > 100 µM; in the experiment with HCT-15 colon, > 84.2 µM. Besides, the TGI is 69.1 µM in the experiment on NCI-H522 lung, > 100 µM in the experiment with CAKI-1 renal and 66.5 µM in the experiment with HCT-116 colon.
For `CN(C)N1C(=O)C(=O)N(c2cccc3ccccc23)C1=O`, the TGI in the experiment with SNB-75 CNS, in the experiment on A498 renal, with DU-145 prostate, in the experiment with HOP-62 NSCLC, in the experiment with KM12 colon and in the experiment with HCT-15 colon was > 10 µM throughout. For the same molecule, the TGI in the experiment with NCI-H522 lung, in the experiment on CAKI-1 renal and with HCT-116 colon was > 10 µM in each case.
As for `Nc1nnc(N)n1N`, the TGI with HOP-92 NSCLC, with SNB-75 CNS, in the experiment with HOP-62 NSCLC, with KM12 colon, in the experiment with HCT-15 colon and in the experiment on NCI-H522 lung was > 100 µM throughout. For the same molecule, the TGI with CAKI-1 renal and with HCT-116 colon was > 100 µM in each case.
Regarding `COc1c(C(=O)/C(=N/Nc2ccc(C(=O)O)cc2)C(C)=O)c(O)cc2occc12`, the TGI in the experiment on HOP-92 NSCLC, in the experiment with SNB-75 CNS, in the experiment on DU-145 prostate, in the experiment with HOP-62 NSCLC, with KM12 colon and in the experiment on HCT-15 colon was > 100 µM each time. Further, the TGI in the experiment on NCI-H522 lung, in the experiment with CAKI-1 renal and in the experiment with HCT-116 colon was > 100 µM throughout.
With `CC(C)CC1c2[nH]c3ccccc3c2C[C@H]2C(=O)NC(Cc3c[nH]c4ccccc34)C(=O)N12` (some centres undefined), the TGI in the experiment with HOP-92 NSCLC is 34.5 µM; with A498 renal, 33.4 µM; in the experiment on DU-145 prostate it was > 100 µM; in the experiment on HOP-62 NSCLC, 45.9 µM; with KM12 colon it was 28.8 µM; in the experiment on HCT-15 colon, 47.2 µM. The TGI with NCI-H522 lung amounted to 29.5 µM; with CAKI-1 renal, 66.1 µM; in the experiment on HCT-116 colon it was 25.7 µM.
For `C/C(Cc1ccc2c(c1)OCO2)=N\N=c1\sc2ccccc2n1C`, the TGI in the experiment with HOP-92 NSCLC, with A498 renal, in the experiment with DU-145 prostate, with HOP-62 NSCLC, in the experiment with KM12 colon and in the experiment with HCT-15 colon was > 100 µM throughout. Moreover, the TGI in the experiment on NCI-H522 lung, with CAKI-1 renal and in the experiment with HCT-116 colon was > 100 µM each time.
Consider `O=C1C=C(NCCc2ccc(O)c([N+](=O)[O-])c2)C(=O)c2[nH]cnc21`, for which the TGI in the experiment on A498 renal is > 100 µM; with HOP-62 NSCLC it was > 100 µM; in the experiment with KM12 colon, > 100 µM; with HCT-15 colon, > 100 µM; with NCI-H522 lung, 57.8 µM; with HCT-116 colon, > 100 µM.
Take `O=[N+]([O-])c1ccc(C[P+]2(c3ccccc3)CCCCC2)cc1` (tested in a mixture with another compound): the TGI with SNB-75 CNS, in the experiment with A498 renal, in the experiment on HOP-62 NSCLC, with KM12 colon, in the experiment with HCT-15 colon and in the experiment with CAKI-1 renal was > 100 µM throughout.
In the case of `O=C1CCCC2=C1CC1=C(CCCC1=O)N2c1ccc(Cl)cc1`, the TGI in the experiment with SNB-75 CNS, in the experiment with A498 renal, with DU-145 prostate, in the experiment with HOP-62 NSCLC, with KM12 colon and with HCT-15 colon was > 100 µM in each case. Further, the TGI in the experiment with CAKI-1 renal and in the experiment with HCT-116 colon was > 100 µM in each case.
In the case of `O=C(Cn1c2ccc(Br)cc2c2nc3ccccc3nc21)NCc1ccccc1`, the TGI was 13.1 µM in the experiment on HOP-92 NSCLC; 19.8 µM in the experiment with SNB-75 CNS; > 100 µM with A498 renal; > 100 µM in the experiment with DU-145 prostate; > 100 µM in the experiment with HOP-62 NSCLC; > 100 µM with KM12 colon. In addition, the TGI in the experiment with HCT-15 colon, with CAKI-1 renal and with HCT-116 colon was > 100 µM in each case.
